Data published in patent publication US4820695A, “C-20-dihydro-deoxy-(cyclic amino)-derivatives of macrolide antibiotics” (priority 1987, dated 1989).
Converted amounts (≈) assume the structure as drawn. Read-outs that look alike come from different tables or passages of the source.

Assays:
[1] = system: Streptococcus pneumoniae Park I; experiment: MIC, standard agar-dilution assay (Table IX); format: cell-based; details: Streptococcus pneumoniae Park I; agar-dilution; read-out: MIC
[2] = system: Staphylococcus aureus V41; experiment: MIC, standard agar-dilution assay (Table IX); format: cell-based; details: Staphylococcus aureus V41, Penicillin-resistant strain, read-out: MIC
Escherichia coli EC14 = experiment: MIC, standard agar-dilution assay (Table IX); format: cell-based; details: read-out: MIC
[3] = system: Haemophilus influenzae 76; experiment: MIC, standard agar-dilution assay (Table IX); format: cell-based; details: Haemophilus influenzae 76, Ampicillin-resistant strain, read-out: MIC
[4] = system: Streptococcus pyogenes C203; experiment: ED50 in mice experimentally infected with S. pyogenes C203 (Table XI); format: in vivo; details: Streptococcus pyogenes, doses given 1 and 4 hours postinfection, read-out: ED50
Outline: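 Protective ED50 (mg/kg × 2) was determined as the dose sparing half the animals. Test compound was given twice, at 1 and 4 hours after experimental S. pyogenes C203 infection of mice.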

Escherichia coli TEM = experiment: MIC, standard agar-dilution assay (Table IX); format: cell-based; details: read-out: MIC
Pasteurella multocida [5] = experiment: Pasteurella infection in one-day-old chicks, subcutaneous administration (Table XII); format: in vivo; details: Administered subcutaneously, 30 mg/kg × 2, 1 and 4 hours post-challenge
Outline: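 Treatment was 30 mg/kg s.c., given twice (1 and 4 h after infection). The infection itself was induced in day-old chicks by s.c. injection of 0.1 ml of avian Pasteurella multocida culture (20-h tryptose broth, diluted 10^-4).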

[6] = system: Staphylococcus epidermidis 222; experiment: MIC, standard agar-dilution assay (Table IX); format: cell-based; details: read-out: MIC
Klebsiella X26 = experiment: MIC, standard agar-dilution assay (Table IX); format: cell-based; details: read-out: MIC
[7] = system: Streptococcus Group D 2041; experiment: MIC, standard agar-dilution assay (Table IX); format: cell-based; details: GROUPD2041, read-out: MIC
[8] = Titratable groups in 66% aqueous DMF (Tables XIV-XVI); format: physicochemical
Excerpt: ^c Run in 66% aqueous DMF
^d Run in 66% aqueous DMF

[9] = system: Pasteurella multocida 60A; experiment: MIC, broth-dilution microtiter test (Table X); format: cell-based; details: Avian isolate, read-out: MIC
Excerpt: (§1) The MIC's in Table X were obtained using conventional broth-dilution microtiter tests.

[10] = system: Mycoplasma gallisepticum 29C; experiment: MIC, broth-dilution microtiter test (Table X); format: cell-based; details: Mycoplasmoides gallisepticum, read-out: MIC
Excerpt: as §1

Streptococcus sp. 19F = experiment: MIC, broth-dilution microtiter test (Table X); format: cell-based; details: read-out: MIC
Excerpt: as §1

Staphylococcus aureus = experiment: MIC, broth-dilution microtiter test (Table X); format: cell-based; details: read-out: MIC
Excerpt: as §1

[11] = system: Pasteurella multocida 17E; experiment: MIC, broth-dilution microtiter test (Table X); format: cell-based; details: Bovine isolate, read-out: MIC
Excerpt: as §1

[12] = system: Mycoplasma hyopneumoniae S5972; experiment: MIC, broth-dilution microtiter test (Table X); format: cell-based; details: Mesomycoplasma hyopneumoniae, read-out: MIC
Excerpt: as §1

Mycoplasma synoviae 40A = experiment: MIC, broth-dilution microtiter test (Table X); format: cell-based; details: Mycoplasmopsis synoviae, read-out: MIC
Excerpt: as §1

Mycoplasma hyorhinis 29E = experiment: MIC, broth-dilution microtiter test (Table X); format: cell-based; details: read-out: MIC
Excerpt: as §1

[13] = system: Pasteurella hemolytica 22C; experiment: MIC, broth-dilution microtiter test (Table X); format: cell-based; details: read-out: MIC
Excerpt: as §1

[14] = system: Staphylococcus aureus S13E; experiment: MIC, standard agar-dilution assay (Table IX); format: cell-based; details: Staphylococcus aureus, S13E
Pasteurella multocida [15] = experiment: Pasteurella infection in one-day-old chicks, medicated drinking water (Table XIII); format: in vivo; details: Administered in the available drinking water at 2 g/gal
Method: Many of the C-20 modified derivatives of this invention have also shown in vivo antibacterial activity against infections induced by gram-negative bacteria. Tables XII and XIII summarize the results of tests in which illustrative compounds were evaluated against a Pasteurella infection in one-day-old chicks. The compounds were administered parenterally or orally after challenge of the chicks with Pasteurella multocida (0.1 ml of a 10^-4 dilution of a twenty-hour tryptose broth culture of an avian P. multocida given subcutaneously). In these tests, unless indicated otherwise, all non-medicated infected chicks died within 24 hours of Pasteurella challenge. In the tests summarized in Table XII, the compounds were administered by subcutaneous injection at a dosage of 30 mg/kg, 1 and 4 hours post-challenge of the chicks with P. multocida. In the tests summarized in Table XIII the compounds were administered in medicated drinking water (at a level of 2 g/gal) available from 4 to 20 hours prior to challenge of the chicks with P. multocida and during the 3 -day test period.
^a Administered in the available drinking water at a concentration of […]

[16] = system: Streptococcus pyogenes C203; experiment: MIC, standard agar-dilution assay (Table IX); format: cell-based; details: read-out: MIC
[17] = system: Streptococcus Group D X66; experiment: MIC, standard agar-dilution assay (Table IX); format: cell-based; details: read-out: MIC
Staphyloccus aureus X1.1 = experiment: MIC, standard agar-dilution assay (Table IX); format: cell-based, Staphylococcus aureus; details: Staphylococcus aureus, read-out: MIC
Escherichia coli N10 = experiment: MIC, standard agar-dilution assay (Table IX); format: cell-based; details: read-out: MIC
[18] = system: Staphylococcus epidermidis EPI1; experiment: MIC, standard agar-dilution assay (Table IX); format: cell-based; details: Staphylococcus epidermidis EPI1; agar-dilution; read-out: MIC
[19] = system: Staphylococcus aureus X400; experiment: MIC, standard agar-dilution assay (Table IX); format: cell-based; details: Staphylococcus aureus X400, Methicillin-resistant strain, read-out: MIC
[20] = system: Haemophilus influenzae C.L.; experiment: MIC, standard agar-dilution assay (Table IX); format: cell-based; details: Ampicillin-sensitive strain, read-out: MIC
[21] = Titratable groups (first value)

Structure (SMILES) | MIC [1] | MIC [2] | MIC (Escherichia coli EC14) | MIC [3] | ED50 ([4]; C203, Oral) | ED50 ([4]; C203, sc, Subcutaneous) | MIC (Escherichia coli TEM) | Number of Deaths/Number Treated (Pasteurella multocida [5]) | MIC [6] | MIC (Klebsiella X26) | MIC [7] | pKa ([8]; Titratable groups) | pKa [8, 21] | MIC [9] | MIC [10] | MIC (Streptococcus sp. 19F) | MIC (Staphylococcus aureus) | MIC [11] | MIC [12] | MIC (Mycoplasma synoviae 40A) | further results
CCC1OC(=O)CC(O)C(C)C(OC2OC(C)C(O)C(N(C)C)C2O)C(CCN2CCCCCC2)CC(C)C(=O)C=CC(C)=CC1COC1OC(C)C(O)C(OC)C1OC (stereo not shown) [Compound D5, 20-DH-DO-20-(Hexahydroazepin-1-yl)desmycosin] | 0.5 µg/mL (≈ 0.585 µM) | 0.5 µg/mL (≈ 0.585 µM) | 4 µg/mL (≈ 4.68 µM) | 128 µg/mL (≈ 150 µM) | 50 mg/kg | 1.3 mg/kg | 8 µg/mL (≈ 9.36 µM) | 0/10 | 0.12 µg/mL (≈ 0.14 µM) | > 128 µg/mL | 8 µg/mL (≈ 9.36 µM) | 9.6 | 7.9 | 3.12 µg/mL (≈ 3.65 µM) | 1.56 µg/mL (≈ 1.82 µM) | 3.12 µg/mL (≈ 3.65 µM) | 1.56 µg/mL (≈ 1.82 µM) | 3.12 µg/mL (≈ 3.65 µM) | 1.56 µg/mL (≈ 1.82 µM) | 0.39 µg/mL (≈ 0.456 µM) | MIC (Mycoplasma hyorhinis 29E): 50 µg/mL (≈ 58.5 µM); MIC [13]: 1.56 µg/mL (≈ 1.82 µM); MIC [14]: 0.25 µg/mL (≈ 0.292 µM); Number of Deaths/Number Treated (Pasteurella multocida [15]): 2/10; MIC [16]: 0.5 µg/mL (≈ 0.585 µM); MIC [17]: 8 µg/mL (≈ 9.36 µM); MIC (Staphyloccus aureus X1.1): 0.5 µg/mL (≈ 0.585 µM); MIC (Escherichia coli N10): 128 µg/mL (≈ 150 µM); MIC [18]: 0.5 µg/mL (≈ 0.585 µM); MIC [19]: 1 µg/mL (≈ 1.17 µM); MIC [20]: 16 µg/mL (≈ 18.7 µM)
CCC1OC(=O)CC(O)C(C)C(OC2OC(C)C(O)C(N(C)C)C2O)C(CCN2CCCCCCCC2)CC(C)C(=O)C=CC(C)=CC1COC1OC(C)C(O)C(OC)C1OC (stereo not shown) [Compound D7, 20-DH-DO-20-(octahydro-1H-azonin-1-yl)desmycosin] | 0.5 µg/mL (≈ 0.566 µM) | 0.5 µg/mL (≈ 0.566 µM) | 64 µg/mL (≈ 72.5 µM) | 16 µg/mL (≈ 18.1 µM) | 12 mg/kg | 1.6 mg/kg | 16 µg/mL (≈ 18.1 µM) | 3/10 | 0.25 µg/mL (≈ 0.283 µM) | > 128 µg/mL | 8 µg/mL (≈ 9.06 µM) | 9 | 7.9 | 6.25 µg/mL (≈ 7.08 µM) | 0.39 µg/mL (≈ 0.442 µM) | 3.12 µg/mL (≈ 3.53 µM) | 1.56 µg/mL (≈ 1.77 µM) | 6.25 µg/mL (≈ 7.08 µM) | 1.56 µg/mL (≈ 1.77 µM) | 0.39 µg/mL (≈ 0.442 µM) | MIC (Mycoplasma hyorhinis 29E): 25 µg/mL (≈ 28.3 µM); MIC [13]: 3.12 µg/mL (≈ 3.53 µM); MIC [14]: 0.5 µg/mL (≈ 0.566 µM); Number of Deaths/Number Treated (Pasteurella multocida [15]): 2/10; MIC [16]: 0.06 µg/mL (≈ 0.0679 µM); MIC [17]: 4 µg/mL (≈ 4.53 µM); MIC (Staphyloccus aureus X1.1): 0.5 µg/mL (≈ 0.566 µM); MIC (Escherichia coli N10): 64 µg/mL (≈ 72.5 µM); MIC [18]: 0.5 µg/mL (≈ 0.566 µM); MIC [19]: 0.5 µg/mL (≈ 0.566 µM); MIC [20]: 16 µg/mL (≈ 18.1 µM)
CCC1OC(=O)CC(O)C(C)C(OC2OC(C)C(O)C(N(C)C)C2O)C(CCN2CCCCC2)CC(C)C(=O)C=CC(C)=CC1COC1OC(C)C(O)C(OC)C1OC (stereo not shown) [Compound D2, 20-DH-DO-20-(piperidin-1-yl)desmycosin] | 0.25 µg/mL (≈ 0.297 µM) | 0.5 µg/mL (≈ 0.594 µM) | > 128 µg/mL | 16 µg/mL (≈ 19 µM) | 50 mg/kg | 0.9 mg/kg | 16 µg/mL (≈ 19 µM) | 0/10 | 0.5 µg/mL (≈ 0.594 µM) | 16 µg/mL (≈ 19 µM) | 16 µg/mL (≈ 19 µM) | 9.1 | 7.8 | 6.25 µg/mL (≈ 7.43 µM) | 3.12 µg/mL (≈ 3.71 µM) | 6.25 µg/mL (≈ 7.43 µM) | 0.78 µg/mL (≈ 0.927 µM) | 25 µg/mL (≈ 29.7 µM) | 12.5 µg/mL (≈ 14.9 µM) | 0.78 µg/mL (≈ 0.927 µM) | MIC (Mycoplasma hyorhinis 29E): > 50 µg/mL; MIC [13]: 3.12 µg/mL (≈ 3.71 µM); MIC [14]: 0.5 µg/mL (≈ 0.594 µM); Number of Deaths/Number Treated (Pasteurella multocida [15]): 5/10; MIC [16]: 0.25 µg/mL (≈ 0.297 µM); MIC [17]: 16 µg/mL (≈ 19 µM); MIC (Staphyloccus aureus X1.1): 0.5 µg/mL (≈ 0.594 µM); MIC (Escherichia coli N10): > 128 µg/mL; MIC [18]: 1 µg/mL (≈ 1.19 µM); MIC [19]: 1 µg/mL (≈ 1.19 µM); MIC [20]: 16 µg/mL (≈ 19 µM)
CCC1OC(=O)CC(O)C(C)C(OC2OC(C)C(O)C(N(C)C)C2O)C(CCN2CCCC2)CC(C)C(=O)C=CC(C)=CC1COC1OC(C)C(O)C(OC)C1OC (stereo not shown) [Compound D1, 20-DH-DO-20-(pyrrolidin-1-yl)desmycosin] | 0.5 µg/mL (≈ 0.605 µM) | 2 µg/mL (≈ 2.42 µM) | > 128 µg/mL | 16 µg/mL (≈ 19.3 µM) | > 50 mg/kg | 1.2 mg/kg | 128 µg/mL (≈ 155 µM) | 0/10 | 1 µg/mL (≈ 1.21 µM) | 16 µg/mL (≈ 19.3 µM) | 16 µg/mL (≈ 19.3 µM) | 9.5 | 7.9 | 6.25 µg/mL (≈ 7.56 µM) | 12.5 µg/mL (≈ 15.1 µM) | 6.25 µg/mL (≈ 7.56 µM) | 0.78 µg/mL (≈ 0.943 µM) | 6.25 µg/mL (≈ 7.56 µM) | 12.5 µg/mL (≈ 15.1 µM) | 0.39 µg/mL (≈ 0.472 µM) | MIC (Mycoplasma hyorhinis 29E): 50 µg/mL (≈ 60.5 µM); MIC [13]: 6.25 µg/mL (≈ 7.56 µM); MIC [14]: 2 µg/mL (≈ 2.42 µM); Number of Deaths/Number Treated (Pasteurella multocida [15]): 9/10; MIC [16]: 1 µg/mL (≈ 1.21 µM); MIC [17]: 32 µg/mL (≈ 38.7 µM); MIC (Staphyloccus aureus X1.1): 2 µg/mL (≈ 2.42 µM); MIC (Escherichia coli N10): > 128 µg/mL; MIC [18]: 2 µg/mL (≈ 2.42 µM); MIC [19]: 2 µg/mL (≈ 2.42 µM); MIC [20]: 16 µg/mL (≈ 19.3 µM)
